# Measured values from PubChem BioAssay AID1918949 (Molecular Pharmacology Branch, DTP, NCI, 2023).
# Tested on: K24384-001-R-PDC complex spheroid viability
# Test: Anticancer human tumor K24384-001-R-PDC patient-derived pancreatic adenocarcinoma cell line growth inhibition
# Details: for IC50: curve of first compound; for viability, T/C: stronger effect = lower value
# Summary of the method: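 Multicellular complex spheroids of tumor cells with human endothelial cells (HUVEC) and mesenchymal stem cells; the LSD1 inhibitor iadademstat was combined with standard-of-care or investigational agents. Top concentration at or near clinical Cmax, half-log dilutions; final DMSO ≤0.25%.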
# [1] = second compound 0.1 µM, first compound 0.00949 µM
# [2] = second compound 0.1 µM, first compound 0.03 µM
# [3] = second compound 0.1 µM, first compound 0.0949 µM
# [4] = second compound 0.1 µM, first compound 0.3 µM
# [5] = second compound 0.1 µM, first compound 0.949 µM
# [6] = second compound 0.1 µM, first compound 3 µM
# [7] = second compound 0.316 µM, first compound 0.00949 µM
# [8] = second compound 0.316 µM, first compound 0.03 µM
# [9] = second compound 0.316 µM, first compound 0.0949 µM
# [10] = second compound 0.316 µM, first compound 0.3 µM
# [11] = second compound 0.316 µM, first compound 0.949 µM
# [12] = second compound 0.316 µM, first compound 3 µM
# [13] = second compound 1 µM, first compound 0.00949 µM
# [14] = second compound 1 µM, first compound 0.03 µM
# [15] = second compound 1 µM, first compound 0.0949 µM
# [16] = second compound 1 µM, first compound 0.3 µM
# [17] = second compound 1 µM, first compound 0.949 µM
# [18] = second compound 1 µM, first compound 3 µM
# [19] = second compound 3.16 µM, first compound 0.00949 µM
# [20] = second compound 3.16 µM, first compound 0.03 µM
# [21] = second compound 3.16 µM, first compound 0.0949 µM
# [22] = second compound 3.16 µM, first compound 0.3 µM
# [23] = second compound 3.16 µM, first compound 0.949 µM
# [24] = second compound 3.16 µM, first compound 3 µM
# [25] = second compound 10 µM, first compound 0.00949 µM
# [26] = second compound 10 µM, first compound 0.03 µM
# [27] = second compound 10 µM, first compound 0.0949 µM
# [28] = second compound 10 µM, first compound 0.3 µM
# [29] = second compound 10 µM, first compound 0.949 µM
# [30] = second compound 10 µM, first compound 3 µM
# 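Note: spheroids exposed to agents for seven days before luminescence viability reading.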
# 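Throughout, for viability, T/C: 100% = DMSO vehicle control viability.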
smiles,measurement,setting,value
Nc1ccccc1NC(=O)c1ccc(CNC(=O)OCc2cccnc2)cc1 + NC1CCC(NC2CC2c2ccccc2)CC1,IC50,second compound 0.1 µM,376 nM
same,IC50,second compound 0.316 µM,444 nM
same,IC50,second compound 1 µM,447 nM
same,IC50,second compound 3.16 µM,401 nM
same,IC50,second compound 10 µM,321 nM
same,"viability, T/C",[1],86.6%
same,"viability, T/C",[2],84.9%
same,"viability, T/C",[3],76.2%
same,"viability, T/C",[4],61.3%
same,"viability, T/C",[5],5.83%
same,"viability, T/C",[6],0.14%
same,"viability, T/C",[7],79.7%
same,"viability, T/C",[8],82.1%
same,"viability, T/C",[9],83.7%
same,"viability, T/C",[10],70.8%
same,"viability, T/C",[11],9.57%
same,"viability, T/C",[12],0.15%
same,"viability, T/C",[13],80.3%
same,"viability, T/C",[14],89%
same,"viability, T/C",[15],92%
same,"viability, T/C",[16],70.6%
same,"viability, T/C",[17],10.4%
same,"viability, T/C",[18],0.13%
same,"viability, T/C",[19],79.9%
same,"viability, T/C",[20],88.2%
same,"viability, T/C",[21],80.2%
same,"viability, T/C",[22],65.2%
same,"viability, T/C",[23],5.24%
same,"viability, T/C",[24],0.16%
same,"viability, T/C",[25],84.1%
same,"viability, T/C",[26],90.7%
same,"viability, T/C",[27],88.7%
same,"viability, T/C",[28],53%
same,"viability, T/C",[29],1.77%
same,"viability, T/C",[30],0.2%
O=C(C=Cc1cccc(S(=O)(=O)Nc2ccccc2)c1)NO + NC1CCC(NC2CC2c2ccccc2)CC1,IC50,second compound 0.1 µM,262 nM
same,IC50,second compound 0.316 µM,239 nM
same,IC50,second compound 1 µM,241 nM
same,IC50,second compound 3.16 µM,266 nM
same,IC50,second compound 10 µM,192 nM
same,"viability, T/C",[1],109%
same,"viability, T/C",[2],112%
same,"viability, T/C",[3],116%
same,"viability, T/C",[4],41.7%
same,"viability, T/C",[5],3.48%
same,"viability, T/C",[6],0.14%
same,"viability, T/C",[7],131%
same,"viability, T/C",[8],107%
same,"viability, T/C",[9],95.1%
same,"viability, T/C",[10],39.4%
same,"viability, T/C",[11],4.3%
same,"viability, T/C",[12],0.15%
same,"viability, T/C",[13],90.3%
same,"viability, T/C",[14],121%
same,"viability, T/C",[15],95.8%
same,"viability, T/C",[16],39.1%
same,"viability, T/C",[17],4.13%
same,"viability, T/C",[18],0.15%
same,"viability, T/C",[19],109%
same,"viability, T/C",[20],129%
same,"viability, T/C",[21],113%
same,"viability, T/C",[22],42.5%
same,"viability, T/C",[23],4.22%
same,"viability, T/C",[24],0.16%
same,"viability, T/C",[25],107%
same,"viability, T/C",[26],118%
same,"viability, T/C",[27],73%
same,"viability, T/C",[28],35.7%
same,"viability, T/C",[29],3.52%
same,"viability, T/C",[30],0.24%
O=C(c1cc(Cc2n[nH]c(=O)c3ccccc23)ccc1F)N1CCN(C(=O)C2CC2)CC1 + NC1CCC(NC2CC2c2ccccc2)CC1,IC50,second compound 0.1 µM,> 10000 nM
same,IC50,second compound 0.316 µM,> 10000 nM
same,IC50,second compound 1 µM,> 10000 nM
same,IC50,second compound 3.16 µM,> 10000 nM
same,IC50,second compound 10 µM,> 10000 nM
same,"viability, T/C","second compound 0.1 µM, first compound 0.0316 µM",75.1%
same,"viability, T/C","second compound 0.1 µM, first compound 0.1 µM",79.7%
same,"viability, T/C","second compound 0.1 µM, first compound 0.316 µM",81.6%
same,"viability, T/C","second compound 0.1 µM, first compound 1 µM",86.5%
same,"viability, T/C","second compound 0.1 µM, first compound 3.16 µM",69.3%
same,"viability, T/C","second compound 0.1 µM, first compound 10 µM",91.8%
same,"viability, T/C","second compound 0.316 µM, first compound 0.0316 µM",74.6%
same,"viability, T/C","second compound 0.316 µM, first compound 0.1 µM",74.8%
same,"viability, T/C","second compound 0.316 µM, first compound 0.316 µM",79.5%
same,"viability, T/C","second compound 0.316 µM, first compound 1 µM",71.2%
same,"viability, T/C","second compound 0.316 µM, first compound 3.16 µM",79.4%
same,"viability, T/C","second compound 0.316 µM, first compound 10 µM",77.8%
same,"viability, T/C","second compound 1 µM, first compound 0.0316 µM",78.1%
same,"viability, T/C","second compound 1 µM, first compound 0.1 µM",75.8%
same,"viability, T/C","second compound 1 µM, first compound 0.316 µM",75.3%
same,"viability, T/C","second compound 1 µM, first compound 1 µM",72.4%
same,"viability, T/C","second compound 1 µM, first compound 3.16 µM",75.2%
same,"viability, T/C","second compound 1 µM, first compound 10 µM",81%
same,"viability, T/C","second compound 3.16 µM, first compound 0.0316 µM",81.9%
same,"viability, T/C","second compound 3.16 µM, first compound 0.1 µM",81.8%
same,"viability, T/C","second compound 3.16 µM, first compound 0.316 µM",77.8%
same,"viability, T/C","second compound 3.16 µM, first compound 1 µM",75.6%
same,"viability, T/C","second compound 3.16 µM, first compound 3.16 µM",69.7%
same,"viability, T/C","second compound 3.16 µM, first compound 10 µM",71.1%
same,"viability, T/C","second compound 10 µM, first compound 0.0316 µM",75.2%
same,"viability, T/C","second compound 10 µM, first compound 0.1 µM",101%
same,"viability, T/C","second compound 10 µM, first compound 0.316 µM",68.3%
same,"viability, T/C","second compound 10 µM, first compound 1 µM",73.4%
same,"viability, T/C","second compound 10 µM, first compound 3.16 µM",65%
same,"viability, T/C","second compound 10 µM, first compound 10 µM",68.8%
